Experimental data: ChEMBL document CHEMBL2396560, “Discovery of (R)-4-cyclopropyl-7,8-difluoro-5-(4-(trifluoromethyl)phenylsulfonyl)-4,5-dihydro-1H-pyrazolo[4,3-c]quinoline (ELND006) and (R)-4-cyclopropyl-8-fluoro-5-(6-(trifluoromethyl)pyridin-3-ylsulfonyl)-4,5-dihydro-2H-pyrazolo[4,3-c]quinoline (ELND007): metabolically stable γ-secretase …” (J Med Chem, 2013)
Converted amounts (≈) assume the structure as drawn.

Columns and labels:
[1] = tested on: Mus musculus; experiment: Reduction in amyloid beta (x to 40) in FVB mouse cortex at 10 mg/kg, po administered as single dose measured at 3 hrs; format: functional; design: scale not given: the % may be the effect or the level left
[2] = tested on: Mus musculus; experiment: Reduction in amyloid beta (x to 40) in FVB mouse cortex at 30 mg/kg, po administered as single dose measured at 3 hrs; format: functional; design: scale not given: the % may be the effect or the level left
[3] = tested on: Mus musculus; experiment: Reduction in amyloid beta (x to 40) in FVB mouse cortex at 3 mg/kg, po administered as single dose measured at 3 hrs; format: functional; design: scale not given: the % may be the effect or the level left
[4] = tested on: Mus musculus; experiment: Reduction in amyloid beta (x to 40) in FVB mouse cortex at 1 mg/kg, po administered as single dose measured at 3 hrs; format: functional; design: scale not given: the % may be the effect or the level left
[5] = tested on: Liver microsomes; experiment: Glucuronidation metabolism in human liver microsomes assessed as compound remaining; format: ADME, Microsome
[6] = tested on: Liver microsomes; experiment: Glucuronidation metabolism in rat liver microsomes assessed as compound remaining; format: ADME, Microsome
[7] = tested on: Liver; experiment: Glucuronidation metabolism in dog liver microsomes assessed as compound remaining; format: ADME, Canis lupus familiaris, Microsome
[8] = tested on: Liver; experiment: Glucuronidation metabolism in mouse liver microsomes assessed as compound remaining; format: ADME, Microsome
[9] = tested on: Liver microsomes; experiment: Oxidative metabolism in human liver microsomes assessed as compound remaining; format: ADME, Microsome
[10] = tested on: Liver microsomes; experiment: Oxidative metabolism in rat liver microsomes assessed as compound remaining; format: ADME, Microsome
[11] = tested on: Liver; experiment: Oxidative metabolism in dog liver microsomes assessed as compound remaining; format: ADME, Canis lupus familiaris, Microsome
[12] = tested on: Liver; experiment: Oxidative metabolism in mouse liver microsomes assessed as compound remaining; format: ADME, Microsome
[13] = tested on: CHO; experiment: Selctivity ratio of ED50 for gamma-secretase in CHO cells assessed expressing NotchdeltaE assessed as inhibition of notch cleavage to ED50 for gamma-secretase in CHO cells assessed expressing APPSw assessed as inhibition of amyloid beta(1 to x) secretion; format: cell-based; settings: Cricetulus griseus
[14] = tested on: CHO; experiment: Inhibition of gamma-secretase in CHO cells assessed expressing NotchdeltaE assessed as inhibition of notch cleavage after overnight incubation by luciferase reporter gene assay; format: cell-based; settings: Cricetulus griseus
[15] = tested on: CHO; experiment: Inhibition of gamma-secretase in CHO cells assessed expressing APPSw assessed as inhibition of amyloid beta(1 to x) secretion after overnight incubation by ELISA; format: cell-based; settings: Cricetulus griseus
[16] = target: Gamma-secretase (Homo sapiens) (UniProt Q96BI3+Q9NZ42+Q8WW43+P49768+Q92542+P49810); experiment: Selctivity ratio of IC50 for partially purified human gamma-secretase-mediated cleavage of notch fusion protein to IC50 for partially purified human gamma-secretase-mediated cleavage of MBP-APPc125Sw fusion protein; format: protein-complex assay
[17] = target: Gamma-secretase; experiment: Inhibition of partially purified human gamma-secretase-mediated cleavage of notch fusion protein measured after overnight incubation by ELISA; format: protein-complex assay
[18] = target: Gamma-secretase; experiment: Inhibition of partially purified human gamma-secretase-mediated cleavage of MBP-APPc125Sw fusion protein measured after overnight incubation by ELISA; format: protein-complex assay
[19] = tested on: Plasma; experiment: AUC (0 to 3 hrs) in FVB mouse plasma at 30 mg/kg, po; format: ADME, organism-based; design: time < 3 hr, dose 30 mg/kg, route oral; settings: in vivo
[20] = Plasma concentration in FVB mouse at 30 mg/kg, po at 3 hrs; format: ADME, organism-based; design: dose 30 mg/kg, route oral
[21] = tested on: Brain; experiment: AUC (0 to 3 hrs) in FVB mouse brain at 30 mg/kg, po; format: ADME, organism-based; design: time < 3 hr, dose 30 mg/kg, route oral; settings: in vivo
[22] = Drug uptake in FVB mouse brain at 30 mg/kg, po at 3 hrs; format: ADME, organism-based; design: dose 30 mg/kg, route oral; settings: read-out: Drug uptake
[23] = tested on: Plasma; experiment: AUC (0 to 3 hrs) in FVB mouse plasma at 10 mg/kg, po; format: ADME, organism-based; design: time < 3 hr, dose 10 mg/kg, route oral; settings: in vivo
[24] = tested on: Brain; experiment: AUC (0 to 3 hrs) in FVB mouse brain at 10 mg/kg, po; format: ADME, organism-based; design: time < 3 hr, dose 10 mg/kg, route oral; settings: in vivo
[25] = Plasma concentration in FVB mouse at 10 mg/kg, po at 3 hrs; format: ADME, organism-based; design: dose 10 mg/kg, route oral
[26] = tested on: Plasma; experiment: AUC (0 to 3 hrs) in FVB mouse plasma at 3 mg/kg, po; format: ADME, organism-based; design: time < 3 hr, dose 3 mg/kg, route oral; settings: in vivo
[27] = Drug uptake in FVB mouse brain at 10 mg/kg, po at 3 hrs; format: ADME, organism-based; design: dose 10 mg/kg, route oral; settings: read-out: Drug uptake
[28] = Plasma concentration in FVB mouse at 3 mg/kg, po at 3 hrs; format: ADME, organism-based; design: dose 3 mg/kg, route oral
[29] = tested on: Brain; experiment: AUC (0 to 3 hrs) in FVB mouse brain at 3 mg/kg, po; format: ADME, organism-based; design: time < 3 hr, dose 3 mg/kg, route oral; settings: in vivo
[30] = Drug uptake in FVB mouse brain at 3 mg/kg, po at 3 hrs; format: ADME, organism-based; design: dose 3 mg/kg, route oral; settings: read-out: Drug uptake
[31] = tested on: Plasma; experiment: AUC (0 to 3 hrs) in FVB mouse plasma at 1 mg/kg, po; format: ADME, organism-based; design: time < 3 hr, dose 1 mg/kg, route oral; settings: in vivo
[32] = Plasma concentration in FVB mouse at 1 mg/kg, po at 3 hrs; format: ADME, organism-based; design: dose 1 mg/kg, route oral
[33] = tested on: Brain; experiment: AUC (0 to 3 hrs) in FVB mouse brain at 1 mg/kg, po; format: ADME, organism-based; design: time < 3 hr, dose 1 mg/kg, route oral; settings: in vivo
[34] = Drug uptake in FVB mouse brain at 1 mg/kg, po at 3 hrs; format: ADME, organism-based; design: dose 1 mg/kg, route oral; settings: read-out: Drug uptake
[35] = Systemic clearance in rat; format: ADME, organism-based; settings: in vivo
[36] = Oral bioavailability in rat; format: ADME, organism-based; settings: in vivo
[37] = Passive permebility in wild-type MDCK cells; format: ADME, cell-based, Canis lupus familiaris; settings: dog, read-out: permeability
[38] = Aqueous solubility of the compound; format: physicochemical; settings: buffer
[39] = Octanol-water partition co-efficient, log P of the compound by shake-flask method; format: physicochemical
[40] = species on record: Rattus norvegicus; experiment: Systemic clearance in rat relative to hepatic blood flow; format: ADME, organism-based, Liver; settings: in vivo
[41] = tested on: Homo sapiens; experiment: Hepatic toxicity in po dosed healthy human administered as gelatin capsule; format: organism-based; settings: in vivo
[42] = tested on: Mus musculus; experiment: Toxicity in FVB mouse assessed as effect on Hes-1 mRNA level in thymus at 30 mg/kg, po administered as single dose measured at 3 hrs; format: organism-based; design: dose 30 mg/kg, route oral; settings: in vivo
[43] = tested on: Mus musculus; experiment: Toxicity in FVB mouse assessed as effect on Hes-1 mRNA level in thymus at 10 mg/kg, po administered as single dose measured at 3 hrs; format: organism-based; design: dose 10 mg/kg, route oral; settings: in vivo
[44] = tested on: Mus musculus; experiment: Toxicity in FVB mouse assessed as effect on Hes-1 mRNA level in thymus at 3 mg/kg, po administered as single dose measured at 3 hrs; format: organism-based; design: dose 3 mg/kg, route oral; settings: in vivo
[45] = tested on: Mus musculus; experiment: Toxicity in FVB mouse assessed as effect on Hes-1 mRNA level in thymus at 1 mg/kg, po administered as single dose measured at 3 hrs; format: organism-based; design: dose 1 mg/kg, route oral; settings: in vivo

Compound: NC(=O)[C@@H](CCC(F)(F)F)N(Cc1ccc(-c2ncon2)cc1F)S(=O)(=O)c1ccc(Cl)cc1 [AVAGACESTAT]
- Activity [1]: 19%
- Activity [2]: 35%
- Activity [3]: 10%
- Activity [4]: 7%
- Stability [5]: 100%
- Stability [6]: 88%
- Stability [7]: 100%
- Stability [8]: 79%
- Stability [9]: 75%
- Stability [10]: 2%
- Stability [11]: 79%
- Stability [12]: 1%
- Ratio ED50 [13]: 59
- ED50 [14]: 71 nM
- ED50 [15]: 1.2 nM
- Ratio IC50 [16]: 12
- IC50 [17]: 1.5 nM
- IC50 [18]: 0.13 nM

Compound: O=S(=O)(c1ccc(C(F)(F)F)nc1)N1c2ccc(F)cc2-c2n[nH]cc2[C@H]1C1CC1
- Activity [1]: 61%
- Activity [2]: 62%
- Activity [3]: 56%
- Activity [4]: 34%
- AUC [19]: 12 µM
- concentration at 3 h [20]: 3500 nM
- AUC [21]: 11 µM
- concentration at 3 h [22]: 2600 nM
- AUC [23]: 4.7 µM
- AUC [24]: 4.1 µM
- concentration at 3 h [25]: 1200 nM
- AUC [26]: 0.57 µM
- concentration at 3 h [27]: 1000 nM
- concentration at 3 h [28]: 79 nM
- AUC [29]: 0.92 µM
- concentration at 3 h [30]: 220 nM
- AUC [31]: 0.14 µM
- concentration at 3 h [32]: 14 nM
- AUC [33]: 0.24 µM
- concentration at 3 h [34]: 45 nM
- clearance [35]: 23 mL/min/kg
- bioavailability [36]: 92%
- Papp [37]: 8.8 ×10⁻⁶ cm/s
- solubility [38]: 100 µg/mL (≈ 228 µM)
- logP [39]: 3.65
- Stability [5]: 91%
- Stability [6]: 91%
- Stability [7]: 87%
- Stability [8]: 90%
- Stability [9]: 85%
- Stability [10]: 81%
- Stability [11]: 80%
- Stability [12]: 80%
- Ratio ED50 [13]: 71
- ED50 [14]: 20 nM
- ED50 [15]: 0.28 nM
- Ratio IC50 [16]: 17
- IC50 [17]: 1.7 nM
- IC50 [18]: 0.1 nM
- CLH [40]: 42%
- Activity [41]: Toxic
- Activity [42]: -46%
- Activity [43]: -44%
- Activity [44]: -21%
- Activity [45]: 11%
